# Measured values taken from US6794416B2, “Methods, compositions and modes of delivery for the treatment of emphysema using 13-cis-retinoic acid” (Syntex (U.S.A.) LLC, priority 2000, dated 2004).
# Read-outs that look alike come from different tables or passages of the source. Marks after values point to notes of the source that are not given here.
# Experiments:
# [1] = tested on: rat model of elastase-induced emphysema; experiment: alveolar repair in the rat model of elastase-induced emphysema; type: in vivo, male Sprague Dawley rats; conditions: for % Alveolar Repair: starting 21 days post elastase injury, relative to elastase + vehicle
# Protocol: All-trans retinoic acid (ATRA) and 13-cis-retinoic acid were evaluated for their effects on alveolar repair in the rat model of elastase-induced emphysema (Massaro et al., Nature, 1997, Vol. 3, No. 6:675; Massaro et al., U.S. Pat. No. 5,998,486). Animals were divided into treatment groups of approximately eight. Lung inflammation and alveolar damage was induced in male Sprague Dawley rats by a single instillation of about 2 U/gram body mass of pancreatic elastase (porcine derived, Calbiochem).
# (§1) Animals treated with ATRA and 13-cis-retinoic acid prepared in Capmul at the dosage ranges enumerated in Table 6 were dosed orally once per day starting 21 days post injury. Control groups were challenged with elastase and 21 days later were treated with vehicle (Capmul solution) for 14 days. Animals were sacrificed 24 hours after the last dose by exsanguination under deep anesthesia. Blood was collected at time of exsanguination for analysis.
# The lungs were inflated with 10% neutral buffered formalin by intratracheal instillation at a constant rate (1 ml/gram body mass/min). The lung was excised and immersed in fixative for 24 hours prior to processing. Alveolar measurements were made in four regions of the lung/rat. The mean value/treatment group was determined by summing the average area/rat for all eight rats relative to the elastase+ vehicle treated group. […] Standard methods were used to prepare 5 μm paraffin sections. Sections were stained with Hematoxylin and Eosin. Computerized Morphometric analysis was performed to determine the average alveolar size and alveolar number.
# [2] = set-up: species or system male Sprague Dawley rats; conditions: rat, in vivo, po
# Protocol: as §1
# Quantitation of triglycerides contained in rat plasma was performed using established procedures in a contact clinical laboratory facility. Briefly, plasma triglycerides were converted to dihdroxyacetone and hydrogen peroxide by sequential treatment of plasma with lipase and glycerokinase according directions described by the manufacturer of triglycerides/GPO kit (Boehringer Mannheim #1488872). Hydrogen peroxide was quantitated colorimetrically in a Hitachi 911 Chemistry Analyzer. In rats normal triglyceride levels are between about 75 mg/dl and about 175 mg/dl.
# Triglyceride values are a convenient measure of toxicity. […] Furthermore, at every dosage level tested, the triglyceride levels observed with 13-cis-retinoic acid were lower than that observed for ATRA.
# [3] = oral dose 0.1 mg/kg once per day
# [4] = oral dose 1.0 mg/kg once per day
# [5] = oral dose 10.0 mg/kg once per day
SMILES,statistical significance of alveolar repair relative to elastase treated control ([1]; dosage of 0.001 mg/kg),statistical significance of alveolar repair relative to elastase treated control ([1]; dosage range from 10.0 mg/kg to as low as 0.01 mg/kg),% Alveolar Repair ([1]; oral dose 0.001 mg/kg once per day),% Alveolar Repair ([1]; oral dose 0.01 mg/kg once per day),"% Alveolar Repair [1, 3]","% Alveolar Repair [1, 4]","% Alveolar Repair [1, 5]",Triglyceride ([2]; 0.001 mg/kg),Triglyceride ([2]; 0.01 mg/kg),Triglyceride ([2]; 0.1 mg/kg),Triglyceride ([2]; 1 mg/kg),Triglyceride ([2]; 10 mg/kg),statistical significance of alveolar repair relative to elastase treated control ([1]; dosages below 0.3 mg/kg),% Alveolar Repair ([1]; oral dose 0.3 mg/kg once per day),% Alveolar Repair ([1]; oral dose 3.0 mg/kg once per day),Triglyceride ([2]; 0.3 mg/kg),Triglyceride ([2]; 3 mg/kg)
"CC1=C(/C=C/C(C)=C/C=C/C(C)=C\C(=O)O)C(C)(C)CCC1 [13-cis-retinoic acid, (13Z)-retinoic acid]",statistically insignificant,statistically significant,12* %,38%,30%,45%,56%,125 mg/dL,73 mg/dL,82 mg/dL,128 mg/dL,147 mg/dL,,,,,
"CC1=C(/C=C/C(C)=C/C=C/C(C)=C/C(=O)O)C(C)(C)CCC1 [ATRA, All-trans retinoic acid]",,,,,8.8* %,45%,53%,,,152 mg/dL,175 mg/dL,378 mg/dL,not statistically significant,30* %,47%,149 mg/dL,307 mg/dL
